Series [1] concerns the target T1, recombinant human NK1 receptors (Homo sapiens, UniProt P25103).
T1 construct: expressed in transfected cells; host or cells: Chinese Hamster Ovary (CHO) cells, membrane preparation
Description: NK1-receptor binding affinity, displacement of [3H]-substance P. Particulars: displacement of [3H]-substance P from recombinant human NK1 receptors expressed in CHO cell membranes; average of at least two determinations. As to the method:
NK1-receptor binding affinity has been determined in vitro by the compounds' ability to displace [3H]-substance P (SP) from recombinant human NK1 receptors expressed in Chinese Hamster Ovary (CHO) cell membranes.
CHO cell membranes were prepared by using a modification of the method described by Dam T and Quirion R (Peptides, 7:855-864, 1986). Thus ligand binding was performed in 0.4 ml of 50 mM HEPES, pH 7.4, containing 3 mM MnCl2, 0.02% BSA, 0.5 nM [^3H]-Substance P (30÷56 Ci/mmol, Amersham), a final membrane concentration of 25 μg of protein/ml, and the test compounds. The incubation proceeded at room temperature for 40 min. Non-specific binding was determined using excess of Substance P (1 μM) and represents about 6% of the total binding.
The affinity of the compound of the invention for NK1 receptor was determined using the NK1-receptor binding affinity method measuring in vitro by the compounds' ability to displace [3H]-substance P (SP) from recombinant human NK1 receptors expressed in Chinese Hamster Ovary (CHO) cell membranes. The affinity values are expressed as negative logarithm of the inhibition constant (Ki) of displacer ligands (pKi).
The pKi values obtained as the average of at least two determinations with representative compounds of the invention are given in the following table: […]

Counter-ions that a name gives are not always drawn.

T1 sequence (P25103 whole entry): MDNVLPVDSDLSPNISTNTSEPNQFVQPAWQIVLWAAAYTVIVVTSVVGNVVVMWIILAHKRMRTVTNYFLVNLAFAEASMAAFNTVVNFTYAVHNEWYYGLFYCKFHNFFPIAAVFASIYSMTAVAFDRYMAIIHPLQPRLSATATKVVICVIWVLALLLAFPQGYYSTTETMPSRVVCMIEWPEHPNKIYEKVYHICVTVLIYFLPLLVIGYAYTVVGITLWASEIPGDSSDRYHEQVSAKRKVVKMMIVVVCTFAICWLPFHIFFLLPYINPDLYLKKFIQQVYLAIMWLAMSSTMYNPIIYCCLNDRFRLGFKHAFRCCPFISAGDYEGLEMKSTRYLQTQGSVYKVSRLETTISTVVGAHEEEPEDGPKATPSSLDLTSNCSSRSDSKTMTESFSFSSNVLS

As usually defined, the Ki is the dissociation constant of the complex between target and ligand, obtained from inhibition or displacement. With `Cc1cc(C)cc(CN(C)C(=O)N2CCNC[C@@H]2c2ccc(F)cc2C)c1` [Example 2, 2-(S)-(4Fluoro-2-methyl-phenyl)piperazine-1-carboxylic Acid, (3,5-dimethyl-benzyl)-methylamide Hydrochloride], in series [1], the inhibitory constant (Ki) was 724 pM.

Broadly, the melting point is the temperature, or range, at which the solid turns liquid. `Cc1cc(F)ccc1[C@H]1CNCCN1C(=O)N(C)Cc1cc(Cl)cc(Cl)c1.Cl` [Example 3, 2-(S)-(4-Fluoro-2-methyl-phenyl)-piperazine-1-carboxylic Acid, (3,5-dichloro-benzyl)-methylamide Hydrochloride] registered a melting point of 110 to 112 °C. Besides, the Ki in series [1] is 372 pM.

`Cc1cc(F)ccc1[C@H]1CNCCN1C(=O)N(C)Cc1cc(F)cc(F)c1` [Example 6, 2-(S)-(4-Fluoro-2-methyl-phenyl)-piperazine-1-carboxylic Acid, (3,5-difluoro-benzyl)-methylamide Hydrochloride]: the Ki in series [1] was 1660 pM.

`Cc1cc(F)ccc1[C@H]1CNCCN1C(=O)N(C)Cc1cc(Cl)ccc1Cl` [Example 7, 2-(S)-(4-Fluoro-2-methyl-phenyl)-piperazine-1-carboxylic Acid, (2,5-dichloro-benzyl)-methylamide Hydrochloride]: the Ki in series [1] is 851 pM.

For `Cc1cc(F)ccc1[C@H]1CNCCN1C(=O)N(C)Cc1ccc(Cl)c(Cl)c1` [Example 8, 2-(S)-(4-fluoro-2-methyl-phenyl)-piperazine-1-carboxylic Acid, (3,4-dichlorobenzyl)-methylamide Trifluoroacetate], the Ki in series [1] is 646 pM.

The values are drawn from patent publication US20040157858A1, “Piperazine derivatives as tachykinin antagonists” (priority 2001, published 2004).
